Experiments:
[1] = tested on: Mongolian gerbils with global brain Ischemia/Reperfusion (I/R); test: Locomotor activity (open field) after global cerebral ischemia/reperfusion; type: in vivo; details: 24 hours post-ischemia, oral HMWS 200, AcGS 132, AlcG 40, AldG 28, AcGL 200, ASA 60 mg/kg
Text: For the evaluation of the neuroprotective effect of the mixture of high molecular weight substances, the object of the present invention, an experimental model of global cerebral ischemia by occlusion and reperfusion of the carotid arteries was used. The composition of High Molecular Weight Substances (HMWS) obtained in example 1 was subjected to a preclinical test with animals, in which its pharmacological effect was compared with the effects of pure extracts of Fatty Acids in the form of Salts (AcGS), fatty alcohols (AlcG) and high molecular weight aldehydes (AldG), which were administered in the dose equivalent to the proportion in which each one is present in 200 mg/kg of the HMWS Active Ingredient. Furthermore, the effect of HMWS was compared with the effect of pure free fatty acid (AcGL) extract administered at equal doses. […] Once the quarantine was over, the gerbils were distributed into 8 groups: a negative control that only received vehicle and cerebral ischemia (CI) was not induced and 7 groups with induced CI. […] All treatments were administered orally through intragastric intubation (0.5 mL/70 g body weight) 1 hour prior to induction of ischemia. […] For 6 minutes, the number of times the gerbils crossed the different quadrants with their front legs and the number of times they stopped or leaned was quantified.

[2] = tested on: pyramidal cells of the CA1 area of the hippocampus; test: Histological score of brain damage after ischemia/reperfusion; type: in vivo, Mongolian gerbils; details: gerbils, oral HMWS 200, AcGS 132, AlcG 40, AldG 28, AcGL 200, ASA 60 mg/kg
Text: For the evaluation of the neuroprotective effect of the mixture of high molecular weight substances, the object of the present invention, an experimental model of global cerebral ischemia by occlusion and reperfusion of the carotid arteries was used. The composition of High Molecular Weight Substances (HMWS) obtained in example 1 was subjected to a preclinical test with animals, in which its pharmacological effect was compared with the effects of pure extracts of Fatty Acids in the form of Salts (AcGS), fatty alcohols (AlcG) and high molecular weight aldehydes (AldG), which were administered in the dose equivalent to the proportion in which each one is present in 200 mg/kg of the HMWS Active Ingredient. Furthermore, the effect of HMWS was compared with the effect of pure free fatty acid (AcGL) extract administered at equal doses. Once the quarantine was over, the gerbils were distributed into 8 groups: a negative control that only received vehicle and cerebral ischemia (CI) was not induced and 7 groups with induced CI. […] All treatments were administered orally through intragastric intubation (0.5 mL/70 g body weight) 1 hour prior to induction of ischemia. […] Sections from each brain were evaluated by a light microscopy scoring system for determination of damage to the pyramidal cells of the CA1 area of the hippocampus with bilateral averages. […]

[3] = tested on: rabbits with spinal cord damage induced by Ischemia/Reperfusion (I/R); test: Neurological deficit score in spinal cord ischemia/reperfusion (abdominal aorta occlusion); type: in vivo, New Zealand rabbits; details: lower = better
Protocol: The neuroprotective effect of the HMWS mixture, object of the present invention, was also investigated using an experimental model of induction of ischemia in the spinal cord. […] Furthermore, the effect of HMWS was compared with that of pure extract of free fatty acids (AcGL) administered at equal doses.
Male New Zealand rabbits (1.8-2.2 kg) were used, which were adapted for 15 days to laboratory conditions (temperature of 20 to 25° C., relative humidity of 60±5%, light/dark cycles of 12 hours), with free access to water and food.
The substances HMWS, AcGS, AlcG, AldG, AcGL and aspirin were prepared as suspensions in an acacia/water vehicle (1%). Once the quarantine was completed, the rabbits were distributed into 8 groups: a negative control that only received vehicle and was not induced ischemia and 7 groups with spinal cord ischemia: a positive control treated only with the vehicle, and 6 groups were treated with HMWS (200 mg/kg), AcGS (132 mg/kg), AlcG (40 mg/kg), AldG (28 mg/kg), AcGL (200 mg/kg), and aspirin (2 mg/kg) as reference substance. […]
For the induction of ischemia in the spinal cord, the rabbits were anesthetized with thiopental (20 mg/kg i.v.). […] At 4 and 24 hours of reperfusion, the neurological deficit of the animals was blindly evaluated by 2 independent observers (according to Zivin et al., 1982). […]

CC(=O)Oc1ccccc1C(=O)O [ASA, aspirin]
Crosses (#), open field locomotor activity ([1]; 6 minutes, mean ± SEM, positive control 355.5 ± 12.4, negative 250.8 ± 14.8): 286.2 ± 15.2 # | Inhibition (%) of hyperlocomotion (crosses) [1]: 66.2% | Histologic Score (brain, CA1, scale 0-4) ([2]; 24 hours reperfusion, mean ± SEM, positive control 2.96 ± 0.07): 2.00 ± 0.15 | Inhibition (%) of histological score of brain damage ([2]; I/R): 32.4% | Score (neurological deficit) 4 h ([3]; 4 h of reperfusion, oral for 10 days: HMWS (example 2) 200, AcGS 132, AlcG 40, AldG 28, AcGL 200, ASA 2 mg/kg, positive control 0.30 ± 0.17, negative 2 ± 0): 0.90 ± 0.25 | Score (neurological deficit) 24 h ([3]; 24 h of reperfusion, oral for 10 days: HMWS 200, AcGS 132, AlcG 40, AldG 28, AcGL 200, ASA 2 mg/kg, positive control 0.15 ± 0.1, negative 2 ± 0): 0.50 ± 0.24
